Laboratory results published in patent publication US9309242B2, “Substituted pyrido[2,3-b]pyrazines as FGFR kinase inhibitors” (priority 2011, dated 2016).
pIC50: −log10 of the molar value. Structures can show the parent of a compound that is named as a salt.

What was measured:
[1] = target: T1, Ba/F3-KDR-transfected cells (Homo sapiens, UniProt P35968); experiment: Ba/F3-KDR (minus IL3) cellular proliferation assay, Alamar Blue; assay type: cell-based
T1 construct: BAF3-KDR (MIN IL3) pIC50; other: minus IL3
Protocol: (§1) Ba/F3-KDR (Minus IL3 or Plus IL3) (Cellular Proliferation Assay)
In a 384 well plate, 100 n1 of compound dilution in DMSO was sprayed before adding 50 μl cell culture medium (phenol red free RPMI-1640, 10% FBS, 2 mM L-Glutamine and 50 μg/ml Gentamycin) containing 20000 cells per well of Ba/F3-KDR-transfected cells. Cells were put in an incubator at 37° C. and 5% CO2. After 24 hours, 10 μl of Alamar Blue solution (0.5 mM K3Fe(CN)6, 0.5 mM K4Fe(CN)6, 0.15 mM Resazurin and 100 mM Phosphate Buffer) was added to the wells, incubated for 4 hours at 37° C. and 5% CO2 before RFU's (Relative Fluorescence Units) (ex. 540 nm., em. 590 nm.) were measured in a fluororescence plate reader. […]

[2] = test system: Ba/F3-FGFR3-transfected cells; experiment: Ba/F3-FGFR3 (plus IL3) cellular proliferation assay, counterscreen with 10 ng/ml murine IL3; assay type: cell-based; settings: plus IL3 (10 ng/ml murine IL3, counterscreen)
Protocol: (§2) Ba/F3-FGFR3 (Minus IL3 or Plus IL3) (Cellular Proliferation Assay)
(§3) In a 384 well plate, 100 nl of compound dilution in DMSO was sprayed before adding 50 μl cell culture medium (phenol red free RPMI-1640, 10% FBS, 2 mM L-Glutamine and 50 μg/ml Gentamycin) containing 20000 cells per well of Ba/F3-FGFR3-transfected cells. Cells were put in an incubator at 37° C. and 5% CO2. After 24 hours, 10 μl of Alamar Blue solution (0.5 mM K3Fe(CN)6, 0.5 mM K4Fe(CN)6, 0.15 mM Resazurin and 100 mM Phosphate Buffer) was added to the wells, incubated for 4 hours at 37° C. and 5% CO2 before RFU's (Relative Fluorescence Units) (ex. 540 nm., em. 590 nm.) were measured in a fluororescence plate reader.
(§4) As a counterscreen the same experiment was performed in the presence of 10 ng/ml murine IL3.

[3] = test system: Ba/F3-KDR-transfected cells; experiment: Ba/F3-KDR (plus IL3) cellular proliferation assay, counterscreen with 10 ng/ml murine IL3; assay type: cell-based; settings: plus IL3 (10 ng/ml murine IL3, counterscreen)
Protocol: as §1
(§5) In a 384 well plate, 100 n1 of compound dilution in DMSO was sprayed before adding 50 μl cell culture medium (phenol red free RPMI-1640, 10% FBS, 2 mM L-Glutamine and 50 μg/ml Gentamycin) containing 20000 cells per well of Ba/F3-KDR-transfected cells. Cells were put in an incubator at 37° C. and 5% CO2. After 24 hours, 10 μl of Alamar Blue solution (0.5 mM K3Fe(CN)6, 0.5 mM K4Fe(CN)6, 0.15 mM Resazurin and 100 mM Phosphate Buffer) was added to the wells, incubated for 4 hours at 37° C. and 5% CO2 before RFU's (Relative Fluorescence Units) (ex. 540 nm., em. 590 nm.) were measured in a fluororescence plate reader.
as §4

KDR (h) = KDR (h) (Homo sapiens, UniProt P35968); experiment: KDR (VEGFR2) (enzymatic assay), TR-FRET; assay type: biochemical; settings: average values if tested multiple times, read-out: VEGFR 2 (KDR) pIC50 (converted)
KDR (h), sequence (P35968 20-1356): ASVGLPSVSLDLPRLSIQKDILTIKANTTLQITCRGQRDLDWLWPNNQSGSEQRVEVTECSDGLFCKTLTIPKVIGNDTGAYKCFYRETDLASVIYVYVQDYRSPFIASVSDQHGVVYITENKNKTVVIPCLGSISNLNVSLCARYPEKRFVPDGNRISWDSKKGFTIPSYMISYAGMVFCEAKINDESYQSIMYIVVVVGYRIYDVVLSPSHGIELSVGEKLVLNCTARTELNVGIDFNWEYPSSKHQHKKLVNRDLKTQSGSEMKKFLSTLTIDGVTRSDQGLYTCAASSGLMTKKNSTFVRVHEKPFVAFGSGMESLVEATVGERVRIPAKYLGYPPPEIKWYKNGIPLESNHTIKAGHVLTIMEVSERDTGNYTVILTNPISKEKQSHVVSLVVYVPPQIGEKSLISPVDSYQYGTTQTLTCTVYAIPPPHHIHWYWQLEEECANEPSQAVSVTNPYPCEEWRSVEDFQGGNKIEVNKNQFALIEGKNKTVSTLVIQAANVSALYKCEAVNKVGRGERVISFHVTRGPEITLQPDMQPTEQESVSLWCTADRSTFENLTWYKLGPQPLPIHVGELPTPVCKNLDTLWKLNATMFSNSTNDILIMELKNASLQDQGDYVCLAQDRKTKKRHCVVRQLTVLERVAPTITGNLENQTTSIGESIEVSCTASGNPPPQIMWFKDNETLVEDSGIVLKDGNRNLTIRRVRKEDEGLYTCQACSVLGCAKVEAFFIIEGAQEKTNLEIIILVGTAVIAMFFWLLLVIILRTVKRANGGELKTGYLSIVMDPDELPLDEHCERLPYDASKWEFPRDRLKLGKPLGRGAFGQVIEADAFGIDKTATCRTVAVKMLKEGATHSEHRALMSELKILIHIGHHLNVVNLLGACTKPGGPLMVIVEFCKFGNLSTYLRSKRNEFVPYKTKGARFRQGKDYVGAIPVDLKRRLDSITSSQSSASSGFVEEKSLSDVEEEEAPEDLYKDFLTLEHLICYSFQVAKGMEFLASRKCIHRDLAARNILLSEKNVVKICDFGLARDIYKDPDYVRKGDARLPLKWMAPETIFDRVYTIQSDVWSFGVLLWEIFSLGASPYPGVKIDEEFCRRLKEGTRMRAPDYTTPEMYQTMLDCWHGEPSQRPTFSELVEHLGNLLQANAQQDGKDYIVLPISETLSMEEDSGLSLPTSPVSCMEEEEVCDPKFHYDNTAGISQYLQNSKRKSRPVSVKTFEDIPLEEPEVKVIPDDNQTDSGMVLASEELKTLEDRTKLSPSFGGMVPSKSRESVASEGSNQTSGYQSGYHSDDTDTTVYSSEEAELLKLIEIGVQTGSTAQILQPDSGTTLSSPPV
Protocol: KDR (VEGFR2) (Enzymatic Assay)
In a final reaction volume of 30 μL, KDR (h) (150 ng/ml) was incubated with 50 mM HEPES pH 7.5, 6 mM MnCl2, 1 mM DTT, 0.1 mM Na3VO4, 0.01% Triton-X-100, 500 nM Btn-Flt3 and 3 μM ATP in the presence of compound (1% DMSO final). After incubation for 120 minutes at room temperature the reaction was stopped with 2.27 nM EU-anti P-Tyr, 7 mM EDTA, 31.25 nM SA-XL-665 and 0.02% BSA which was present for 60 minutes at room temperature. Time-Resolved Fluorescence Resonance Energy Transfer (TR-FRET) signal (ex340 nm. Em 620 nm, em 655 nm) was measured afterwards and results are expressed in RFU (Relative Fluorescence Units).

FGFR4 (h) = FGFR4 (h) (Homo sapiens, UniProt P22455); experiment: FGFR4 (enzymatic assay), TR-FRET; assay type: biochemical; settings: FGFR 4 pIC50, enzymatic assay; average values if tested multiple times
FGFR4 (h), sequence (P22455 22-802): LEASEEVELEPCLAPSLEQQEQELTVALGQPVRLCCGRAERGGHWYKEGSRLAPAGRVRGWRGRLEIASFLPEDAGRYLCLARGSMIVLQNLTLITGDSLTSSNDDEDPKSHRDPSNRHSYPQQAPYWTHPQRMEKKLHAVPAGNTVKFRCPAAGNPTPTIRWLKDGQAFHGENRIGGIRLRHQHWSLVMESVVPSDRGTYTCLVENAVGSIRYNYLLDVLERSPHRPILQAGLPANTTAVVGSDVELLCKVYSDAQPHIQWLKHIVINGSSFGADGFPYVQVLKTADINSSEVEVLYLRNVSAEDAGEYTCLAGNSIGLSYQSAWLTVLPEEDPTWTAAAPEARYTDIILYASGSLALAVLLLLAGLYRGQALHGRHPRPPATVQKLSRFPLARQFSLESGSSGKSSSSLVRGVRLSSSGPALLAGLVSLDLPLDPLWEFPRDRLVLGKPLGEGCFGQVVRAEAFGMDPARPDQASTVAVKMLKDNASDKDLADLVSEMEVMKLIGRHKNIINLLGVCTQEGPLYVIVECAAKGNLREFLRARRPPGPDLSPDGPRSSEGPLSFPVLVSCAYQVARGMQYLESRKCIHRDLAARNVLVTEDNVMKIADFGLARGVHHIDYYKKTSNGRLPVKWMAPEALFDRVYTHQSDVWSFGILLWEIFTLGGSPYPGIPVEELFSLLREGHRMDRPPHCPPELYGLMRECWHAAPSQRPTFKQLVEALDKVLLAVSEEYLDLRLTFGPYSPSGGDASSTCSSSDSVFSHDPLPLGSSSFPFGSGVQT

FGFR2 (h) = FGFR2 (h) (Homo sapiens, UniProt P21802); experiment: FGFR2 (enzymatic assay), TR-FRET; assay type: biochemical; settings: enzymatic assay; average values if tested multiple times; read-out: FGFR 2 pIC50 (converted)
FGFR2 (h), sequence (P21802 22-821): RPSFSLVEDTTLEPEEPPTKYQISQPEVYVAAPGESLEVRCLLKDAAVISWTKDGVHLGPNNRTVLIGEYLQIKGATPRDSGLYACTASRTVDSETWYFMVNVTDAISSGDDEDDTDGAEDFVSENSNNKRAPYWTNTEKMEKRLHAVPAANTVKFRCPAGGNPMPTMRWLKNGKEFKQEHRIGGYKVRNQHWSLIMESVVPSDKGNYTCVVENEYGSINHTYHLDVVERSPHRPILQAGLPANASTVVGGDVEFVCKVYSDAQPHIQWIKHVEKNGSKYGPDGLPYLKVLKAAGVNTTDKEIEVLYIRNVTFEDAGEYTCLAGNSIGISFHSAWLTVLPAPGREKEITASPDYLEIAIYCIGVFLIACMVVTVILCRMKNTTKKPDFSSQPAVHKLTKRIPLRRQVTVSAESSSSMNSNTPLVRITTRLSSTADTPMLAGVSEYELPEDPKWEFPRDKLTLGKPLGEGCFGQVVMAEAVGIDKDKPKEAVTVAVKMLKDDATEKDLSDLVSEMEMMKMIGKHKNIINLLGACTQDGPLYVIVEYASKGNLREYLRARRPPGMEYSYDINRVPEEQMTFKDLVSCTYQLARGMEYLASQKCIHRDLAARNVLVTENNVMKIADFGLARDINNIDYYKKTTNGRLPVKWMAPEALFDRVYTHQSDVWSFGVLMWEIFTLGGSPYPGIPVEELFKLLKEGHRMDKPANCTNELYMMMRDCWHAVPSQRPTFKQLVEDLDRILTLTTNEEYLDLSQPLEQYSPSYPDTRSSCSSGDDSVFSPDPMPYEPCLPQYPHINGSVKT
Protocol: In a final reaction volume of 30 μL, FGFR2 (h) (150 ng/ml) was incubated with 50 mM HEPES pH 7.5, 6 mM MnCl2, 1 mM DTT, 0.1 mM Na3VO4, 0.01% Triton-X-100, 500 nM Btn-Flt3 and 0.4 μM ATP in the presence of compound (1% DMSO final).

FGFR1 (h) = FGFR1 (h) (Homo sapiens, UniProt P11362); experiment: FGFR1 (enzymatic assay), TR-FRET; assay type: biochemical; settings: average values if tested multiple times, read-out: FGFR 1 pIC50 (converted)
[4] = test system: Ba/F3-FGFR1-transfected cells; experiment: Ba/F3-FGFR1 (plus IL3) cellular proliferation assay, counterscreen with 10 ng/ml murine IL3; assay type: cell-based; settings: plus IL3 (10 ng/ml murine IL3, counterscreen)
Protocol: (§6) Ba/F3-FGFR1 (Minus IL3 or Plus IL3) (Cellular Proliferation Assay)
as §3, with “Ba/F3-FGFR1-transfected” for “Ba/F3-FGFR3-transfected”
as §4

[5] = target: Ba/F3-FGFR4-transfected cells (Homo sapiens, UniProt P22455); experiment: Ba/F3-FGFR4 cellular proliferation assay, Alamar Blue; assay type: cell-based
Ba/F3-FGFR4-transfected cells, sequence (P22455 whole entry, change not shown): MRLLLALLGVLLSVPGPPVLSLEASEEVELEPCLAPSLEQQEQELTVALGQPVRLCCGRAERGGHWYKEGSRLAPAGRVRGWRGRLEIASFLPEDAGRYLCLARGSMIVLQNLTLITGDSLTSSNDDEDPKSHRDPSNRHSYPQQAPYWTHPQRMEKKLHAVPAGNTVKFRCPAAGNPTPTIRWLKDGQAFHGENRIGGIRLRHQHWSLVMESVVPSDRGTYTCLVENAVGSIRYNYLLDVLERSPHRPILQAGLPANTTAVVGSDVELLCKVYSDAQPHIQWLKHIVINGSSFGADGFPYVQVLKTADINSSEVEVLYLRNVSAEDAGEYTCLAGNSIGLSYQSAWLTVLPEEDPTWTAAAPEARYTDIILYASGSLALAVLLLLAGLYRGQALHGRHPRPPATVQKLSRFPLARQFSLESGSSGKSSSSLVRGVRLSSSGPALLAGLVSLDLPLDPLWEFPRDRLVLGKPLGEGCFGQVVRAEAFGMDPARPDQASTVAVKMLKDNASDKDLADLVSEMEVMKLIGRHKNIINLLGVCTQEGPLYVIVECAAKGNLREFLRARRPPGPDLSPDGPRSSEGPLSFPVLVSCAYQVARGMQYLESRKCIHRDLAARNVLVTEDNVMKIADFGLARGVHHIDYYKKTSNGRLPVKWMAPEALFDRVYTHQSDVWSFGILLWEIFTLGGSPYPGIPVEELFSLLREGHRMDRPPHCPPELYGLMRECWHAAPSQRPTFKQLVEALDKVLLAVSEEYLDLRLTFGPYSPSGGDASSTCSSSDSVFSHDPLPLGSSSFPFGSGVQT
Protocol: Ba/F3-FGFR4 (Cellular Proliferation Assay)
as §5, with “Ba/F3-FGFR4-transfected” for “Ba/F3-KDR-transfected”

[6] = target: T2, Ba/F3-FGFR3-transfected cells (Homo sapiens, UniProt P22607); experiment: Ba/F3-FGFR3 (minus IL3) cellular proliferation assay, Alamar Blue; assay type: cell-based
T2 construct: BAF3-FGFR3 (MIN IL3) pIC50; other: minus IL3
Protocol: as §2
as §3, with “reader. […]” for “reader.”

[7] = target: T3, Ba/F3-FGFR1-transfected cells (Homo sapiens, UniProt P11362); experiment: Ba/F3-FGFR1 (minus IL3) cellular proliferation assay, Alamar Blue; assay type: cell-based
T3 construct: BAF3-FGFR1 (MIN IL3) pIC50; other: minus IL3
Protocol: as §6
as §3, with “Ba/F3-FGFR1-transfected” for “Ba/F3-FGFR3-transfected”

FGFR3 (h) = FGFR3 (h) (Homo sapiens, UniProt P22607); experiment: FGFR3 (enzymatic assay), TR-FRET; assay type: biochemical; settings: average values if tested multiple times, read-out: FGFR 3 pIC50 (converted)
FGFR3 (h), sequence (P22607 23-806): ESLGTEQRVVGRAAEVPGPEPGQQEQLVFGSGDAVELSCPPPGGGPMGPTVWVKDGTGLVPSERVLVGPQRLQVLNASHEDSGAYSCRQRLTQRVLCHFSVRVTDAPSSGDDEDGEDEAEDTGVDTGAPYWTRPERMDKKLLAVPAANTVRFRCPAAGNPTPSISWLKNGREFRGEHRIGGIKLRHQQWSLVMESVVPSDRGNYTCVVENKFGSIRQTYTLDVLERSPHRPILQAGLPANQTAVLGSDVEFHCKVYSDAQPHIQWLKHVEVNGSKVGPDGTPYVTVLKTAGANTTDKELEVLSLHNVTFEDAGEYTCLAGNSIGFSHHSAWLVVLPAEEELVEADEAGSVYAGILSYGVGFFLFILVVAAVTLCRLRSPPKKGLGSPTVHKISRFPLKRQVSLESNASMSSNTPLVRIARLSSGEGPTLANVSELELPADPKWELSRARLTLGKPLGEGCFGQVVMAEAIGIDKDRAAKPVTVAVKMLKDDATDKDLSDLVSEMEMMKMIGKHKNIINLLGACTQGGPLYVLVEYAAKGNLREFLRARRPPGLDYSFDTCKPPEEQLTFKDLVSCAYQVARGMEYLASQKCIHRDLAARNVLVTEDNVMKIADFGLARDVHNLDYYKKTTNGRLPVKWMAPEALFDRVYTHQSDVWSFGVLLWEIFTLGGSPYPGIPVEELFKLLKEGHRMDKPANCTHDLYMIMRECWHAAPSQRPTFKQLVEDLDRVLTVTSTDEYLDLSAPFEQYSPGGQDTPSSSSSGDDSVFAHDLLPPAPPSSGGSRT
Excerpt: Time-Resolved Fluorescence Resonance Energy Transfer (TR-FRET) signal (ex340 nm.

Row | Structure (SMILES) | BAF3-KDR (MIN IL3) pIC50 [1] | BAF3-FGFR3 (PLUS IL3) pIC50 [2] | BAF3-KDR (PLUS IL3) pIC50 [3] | IC50 (KDR (h)) [nM] | pIC50 (FGFR4 (h)) | IC50 (FGFR2 (h)) [nM] | IC50 (FGFR1 (h)) [nM] | BAF3-FGFR1 (PLUS IL3) pIC50 [4] | BAF3-FGFR4 pIC50 [5] | BAF3-FGFR3 (MIN IL3) pIC50 [6] | BAF3-FGFR1 (MIN IL3) pIC50 [7] | IC50 (FGFR3 (h)) [nM]
1 | COc1cc(OC)c(F)c(N(Cc2ncc[nH]2)c2ccc3ncc(-c4cnn(C)c4)nc3n2)c1 [23-fumarate salt] | 6.67 | <5 | <5 | 5.13 | 9.10 | 1.51 | 0.479 | <5 | 7.94 | ~8.67 | 8.85 | ~0.891
2 | COc1cc(OC)c(F)c(N(Cc2ncc[nH]2)c2ccc3ncc(-c4cnn(C)c4)nc3n2)c1 [23-hydrochloric acid salt] | 6.68 | <5 | <5 | 6.76 | 9.07 | 1.41 | 0.437 | <5 | 7.98 | ~8.58 | 8.81 | 0.776
3 | COc1cc(OC)c(F)c(N(Cc2ncc[nH]2)c2ccc3ncc(-c4cnn(C)c4)nc3n2)c1 [23-lactate salt] | 6.83 | <5 | <5 | 6.61 | 8.96 | 1.38 | 0.501 | <5 | 8.13 | ~8.14 | 8.29 | 0.955
4 | COc1cc(OC)c(F)c(N(Cc2ncc[nH]2)c2ccc3ncc(-c4cnn(C)c4)nc3n2)c1 [23-phosphate salt] | 7.03 | <5 | <5 | 7.94 | 9.01 | 1.91 | 0.468 | <5 | 8.15 | ~8.64 | 8.83 | 1.1
5 | COc1cc(OC)cc(N(Cc2ncc[nH]2)c2ccc3ncc(-c4cnn(C)c4)nc3n2)c1 [24-fumarate salt] | 6.38 | <5 | <5 | 11.7 | 8.92 | 1.26 | 0.631 | <5 | 7.85 | ~8.61 | 8.46 | 0.851
6 | COc1cc(OC)cc(N(Cc2ncc[nH]2)c2ccc3ncc(-c4cnn(C)c4)nc3n2)c1 [24-hydrochloric acid salt] | 5.92 | <5 | <5 | 7.24 | 8.92 | 1.41 | 0.776 | <5 | 7.77 | 7.96 | 8.16 | 1.02
7 | COc1cc(OC)cc(N(Cc2ncc[nH]2)c2ccc3ncc(-c4cnn(C)c4)nc3n2)c1 [24-phosphate salt] | 6.05 | <5 | <5 | 14.5 | 8.99 | 1.23 | 0.708 | <5 | 7.47 | 7.74 | 8.42 | 0.832
8 | COc1cc(OC)cc(N(Cc2ncc[nH]2)c2ccc3ncc(-c4cnn(C)c4)nc3n2)c1 [24-sulphate salt] | 6.15 | <5 | <5 | 13.2 | 9.12 | 1.29 | 0.55 | <5 | 7.57 | ~8.15 | 8.29 | ~0.912
